Assay results taken from publication PMC9794833, “Ligand recognition and activation of neuromedin U receptor 2” (Nature Communications, 2022).
Values joined by “and” are separate entries in the source; they are usually repeats but may differ in a detail not shown here. Identical values can stand only once. Like-named read-outs stand apart in the source and are kept apart here. Where no end group is shown, it is not given here.

Experiments:
Type in all cases: cell-based
[1] = target: T1, NMU2 N306Q (Homo sapiens, UniProt Q9GZQ4, N306Q); assay: TRUPATH assay, NMU2 mutant N306Q
T1 construct: HA signal peptide (N); expressed in transfected cells; host or cells: HEK 293F
Protocol: (§1) The plasmids of Gαi1, Gβ3, and Gγ9 used for the TRUPATH assay were purchased from Addgene (TRUPATH Kit, #1000000163). NMU2 constructs of WT and mutants were constructed into a PTT5 vector (Invitrogen) with an N-terminal HA signal peptide followed by a Flag tag. HEK 293F cells were transiently transfected with WT or mutants of NMU2, Gαi1, Gβ3, and Gγ9 at an […] ratio of 4:1:1:1 with a total of 3500 ng plasmid DNA using a transfection reagent (PEI MAX 2000, Polysciences) and cultivated at 37 °C with 5 % CO2. Cells were collected after 48-h transfection. The expression level of the receptor was measured by incubating 10 μl cells with 15 μl TBS buffer supplemented with 4% bovine serum albumin, 20% (v/v) viability staining solution7-AAD (Invitrogen, Cat#00-6993-50), and ANTI-FLAG M2-FITC antibody (Sigma, F4049; 1:100 diluted by TBS) at 4 °C for 20 min. After incubation, 175 μl TBS buffer was added, and the fluorescence signal on the cell surface was detected by an FCM (flow cytometry) reader (Millipore). The cells were diluted with 1× HBSS (Hank’s balanced salt solution) balanced buffer supplemented with 25 mM HEPES, pH 7.4, and seeded onto the 96-well opaque cell culture plates (Beyotime) at a density of 18,000 cells per well by 60 μl. Freshly prepared 50 μM coelenterazine 400a (Nanolight Technologies) was added into the well by 10 μl. After a 5 min equilibration time in the darkness, plates were then read in a Synerg^TM H1 microplate reader (BioTek) with excitation at 395 nm and emission at 410 and 515 nm by serially three times. Then, 30 μl of 3.3× agonists were added into the wells with a gradient final concentration from 10^−4–10^−13 M. Plates were read immediately again by serially five times. Data were processed and analyzed following the method in the literature by using GraphPad Prism 8.0.

[2] = target: T2, NMU2 F284A (Homo sapiens, UniProt Q9GZQ4, F284A); assay: TRUPATH assay, NMU2 mutant F284A
T2 construct: HA signal peptide (N); expressed in transfected cells; host or cells: HEK 293F
Protocol: as §1

[3] = target: T3, NMU2 F291A (Homo sapiens, UniProt Q9GZQ4, F291A); assay: TRUPATH assay, NMU2 mutant F291A
T3 construct: HA signal peptide (N); expressed in transfected cells; host or cells: HEK 293F
Protocol: as §1

[4] = target: T4, NMU2 E102A (Homo sapiens, UniProt Q9GZQ4, E102A); assay: IP accumulation assay, NMU2 mutant E102A; conditions: IP accumulation
T4 construct: HA signal peptide (N); expressed in transfected cells; host or cells: HEK 293F
Protocol: (§2) NMU2 constructs of WT and mutants were constructed into PTT5 vector (Invitrogen), as mentioned above. HEK 293F cells were transiently transfected with WT or mutants with total of 2000 ng plasmid DNA using transfection reagent (PEI MAX 2000, Polysciences) and cultivated at 37 °C with 5% CO2. Cells were collected after 48-h transfection. IP accumulation was tested by IP-One Gq assay kit (Cisbio Bioassays, 62IPAPEJ) following the instruction manual. In general, cells were resuspended with 1× HBSS buffer containing 20 mM LiCl (stimulation buffer) and seeded into the white 384-well microplates (Proxi Plate^TM-384 Plus, PerkinElmer) with a density of 20,000 per well. Cells were preincubated with 10^−5 M R-PSOP (provided by Boehringer Ingelheim company, Germany) and gradient concentration from 10^−4 to 10^−11 M of NMU-25 or gradient concentration 10^−4 to 10^−11 M of NMU-25 alone in stimulation buffer at 37 °C for 90 min. The cryptate-labeled anti-IP1 monoclonal antibody and d2-labeled IP1 were diluted with lysis & detection buffer (1:20) and added to each well by 3 μl, respectively. The plates were incubated at room temperature for 60 minutes and then read in a Synerg^TM H1 microplate reader (BioTek) with excitation at 330 nm and emission at 620 and 665 nm. The IP1 production was calculated by a standard dose–response curve and analyzed by GraphPad Prism 8.0.

[5] = target: T5, NMU2 R288A (Homo sapiens, UniProt Q9GZQ4, R288A); assay: IP accumulation assay, NMU2 mutant R288A
T5 construct: HA signal peptide (N); expressed in transfected cells; host or cells: HEK 293F
Protocol: as §2

[6] = target: T6, NMU2 H43E (Homo sapiens, UniProt Q9GZQ4, H43E); assay: TRUPATH assay, NMU2 mutant H43E; conditions: H43E
T6 construct: HA signal peptide (N); expressed in transfected cells; host or cells: HEK 293F
Protocol: as §1

[7] = read-out: pEC50 mean±SEM (converted)

T2 sequence (Q9GZQ4 whole entry F284A): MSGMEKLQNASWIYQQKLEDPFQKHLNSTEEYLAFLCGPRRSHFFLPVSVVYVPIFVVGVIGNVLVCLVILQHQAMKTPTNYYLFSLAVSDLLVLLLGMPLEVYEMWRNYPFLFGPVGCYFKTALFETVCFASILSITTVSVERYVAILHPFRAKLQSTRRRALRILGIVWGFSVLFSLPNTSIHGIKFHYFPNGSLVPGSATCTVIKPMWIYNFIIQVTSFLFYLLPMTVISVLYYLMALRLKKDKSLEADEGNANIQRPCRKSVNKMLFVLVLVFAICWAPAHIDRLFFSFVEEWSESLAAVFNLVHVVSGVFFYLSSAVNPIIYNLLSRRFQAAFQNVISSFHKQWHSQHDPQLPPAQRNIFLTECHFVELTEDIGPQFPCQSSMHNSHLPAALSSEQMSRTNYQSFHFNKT
T1 sequence (Q9GZQ4 whole entry N306Q): as the sequence (Q9GZQ4 whole entry F284A) above, with A284F, N306Q counted along it
T3 sequence (Q9GZQ4 whole entry F291A): as the sequence (Q9GZQ4 whole entry F284A) above, with A284F, F291A counted along it
T6 sequence (Q9GZQ4 whole entry H43E): as the sequence (Q9GZQ4 whole entry F284A) above, with H43E, A284F counted along it
T4 sequence (Q9GZQ4 whole entry E102A): as the sequence (Q9GZQ4 whole entry F284A) above, with E102A, A284F counted along it
T5 sequence (Q9GZQ4 whole entry R288A): as the sequence (Q9GZQ4 whole entry F284A) above, with A284F, R288A counted along it

## FRVDEEFQSPFASQSRGYFLFRPRN-NH2 [NmU-25]
[1]
  EC50 ratio EC50(mutant)/EC50(WT): 14
  Span (window between Emax and minimal agonist response): 101±10 % of WT
[1]; Log [agonist] M -4
  G protein activation (TRUPATH), dose-response point: 89.9582 and 52.9953 and 88.5352
[1]; Log [agonist] M -5
  G protein activation (TRUPATH), dose-response point: 95.8006 and 91.3095 and 87.6434
[1]; individual experiments
  ΔpEC50 (from WT): -1.093 and -0.9304 and -1.223
[1]; read-out: EC50
  EC50: 466 nM
[1]; [7]
  EC50: 468 nM
[2]; Log [NmU-25] M -4, single replicates
  NmU-25–induced G protein activation of NMU2: 51.7867 and 36.0609 and 47.0977
[2]; Log [NmU-25] M -5, single replicates
  NmU-25–induced G protein activation of NMU2: 36.8137 and 51.0666 and -1.433 and 5.137 and 15.0834
[2]; Log [NmU-25] M -6, single replicates
  NmU-25–induced G protein activation of NMU2: -9.689 and 18.4963 and 20.7431 and 10.1867 and 6.446
[2]; Log [NmU-25] M -7, single replicates
  NmU-25–induced G protein activation of NMU2: 16.596 and 4.555 and 25.4325 and 3.668 and -4.14
[2]; Log [NmU-25] M -8, single replicates
  NmU-25–induced G protein activation of NMU2: 37.8124 and 33.3355 and -35.58 and 1.433 and 3.8556
[2]; Log [NmU-25] M -9, single replicates
  NmU-25–induced G protein activation of NMU2: 18.5281 and 39.1515 and -3.291 and -33.2453 and 1.059
[2]; Log [NmU-25] M -10, single replicates
  NmU-25–induced G protein activation of NMU2: -33.6452 and 11.984 and -41.6359 and -19.8948 and -2.9799
[2]; Log [NmU-25] M -11, single replicates
  NmU-25–induced G protein activation of NMU2: -12.488 and 31.0606 and -18.1089 and -17.8891 and -12.403
[2]; Log [agonist] M -4
  G protein activation (TRUPATH), dose-response point: 51.7867 and 36.0609 and 47.0977
[3]
  EC50 ratio EC50(mutant)/EC50(WT): 22
  Span (window between Emax and minimal agonist response): 126±11 % of WT
[3]; Log [agonist] M -4
  G protein activation (TRUPATH), dose-response point: 101.173 and 139.066
[3]; Log [agonist] M -5
  G protein activation (TRUPATH), dose-response point: 80.701 and 107.283 and 106.417
[3]; compared with wild-type, peer review file
  span: 127%
[3]; individual experiments
  ΔpEC50 (from WT): -0.7238 and -1.311 and -0.9879
[3]; read-out: EC50
  EC50: 737 nM
[3]; [7]
  EC50: 741 nM
[4]; read-out: EC50, NmU-25 alone
  EC50: 1700 nM
[4]; read-out: pEC50±SEM, NmU-25 alone (converted)
  EC50: 1700 nM
[5]
  NmU-25-induced IP accumulation (in words): totally eliminated
[6]
  EC50 ratio EC50(mutant)/EC50(WT): 11
  Span (window between Emax and minimal agonist response): 135±8 % of WT
[6]; Log [agonist] M -4
  G protein activation (TRUPATH), dose-response point: 115.78 and 106.024 and 146.553 and 103.896
[6]; Log [agonist] M -6
  G protein activation (TRUPATH), dose-response point: 81.3432 and 53.8154 and 89.1078 and 81.5652
[6]; individual experiments
  ΔpEC50 (from WT): -0.8963 and -0.6313 and -0.3476 and -0.5879
[6]; read-out: EC50
  EC50: 360 nM
[6]; [7]
  EC50: 363 nM
